Source: patent US12090146B2, “Substituted-pyridinyl compounds and uses thereof” (Bionomics Limited, priority 2018, dated 2024)

Assays:
hKv3.1 = molecular target: T1, hKv3.1 (Homo sapiens, UniProt P48547); assay: Automated patch clamp (Patchliner) whole-cell electrophysiology, Kv3.1; format: cell-based; conditions: 10 μM compound, CHO-K1 cells stably expressing hKv3.1; for Kv3.1 Activity at 10 μM Potentiation (%): % potentiation of peak current at −10 mV voltage step vs vehicle; for Kv3.1 Activity at 10 μM Voltage Shift (mV): voltage shift of the IV curve at V1/2
T1 construct: expressed in transfected cells
T1 sequence (P48547 1-511): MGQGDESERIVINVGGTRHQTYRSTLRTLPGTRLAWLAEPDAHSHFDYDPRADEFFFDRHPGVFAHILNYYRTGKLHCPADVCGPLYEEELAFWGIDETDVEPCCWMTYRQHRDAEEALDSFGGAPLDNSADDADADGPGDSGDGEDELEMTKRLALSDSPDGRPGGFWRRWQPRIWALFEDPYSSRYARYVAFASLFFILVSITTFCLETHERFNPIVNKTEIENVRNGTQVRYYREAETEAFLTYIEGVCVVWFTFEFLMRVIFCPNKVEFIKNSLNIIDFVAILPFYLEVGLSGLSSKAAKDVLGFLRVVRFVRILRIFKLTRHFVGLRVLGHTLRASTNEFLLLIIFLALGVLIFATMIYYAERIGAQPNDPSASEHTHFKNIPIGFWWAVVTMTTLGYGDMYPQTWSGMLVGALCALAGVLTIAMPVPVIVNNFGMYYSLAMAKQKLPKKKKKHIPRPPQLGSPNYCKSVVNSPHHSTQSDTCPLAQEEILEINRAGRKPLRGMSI
How it was run: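 CHO-K1 cells stably expressing hKv3.x recorded by whole-cell automated patch clamp at 21-23 °C, held at −80 mV with 1000 ms steps from −60 to +60 mV, vehicle then 10 uM compound (0.33% DMSO, 3-min incubation), 4 cells. Currents normalized to +60 mV; % potentiation at −10 mV and Boltzmann V1/2 shift reported.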

hKv3.2 = molecular target: T2, hKv3.2 (Homo sapiens, UniProt Q96PR1); assay: Automated patch clamp (Patchliner) whole-cell electrophysiology, Kv3.2; format: cell-based; conditions: 10 μM compound, CHO-K1 cells stably expressing hKv3.2; for activation at 10 µM: % potentiation of peak current at −10 mV voltage step vs vehicle; for Kv3.2 Activity at 10 μM Voltage Shift (mV): voltage shift of the IV curve at V1/2
T2 construct: expressed in transfected cells
T2 sequence (Q96PR1 1-638): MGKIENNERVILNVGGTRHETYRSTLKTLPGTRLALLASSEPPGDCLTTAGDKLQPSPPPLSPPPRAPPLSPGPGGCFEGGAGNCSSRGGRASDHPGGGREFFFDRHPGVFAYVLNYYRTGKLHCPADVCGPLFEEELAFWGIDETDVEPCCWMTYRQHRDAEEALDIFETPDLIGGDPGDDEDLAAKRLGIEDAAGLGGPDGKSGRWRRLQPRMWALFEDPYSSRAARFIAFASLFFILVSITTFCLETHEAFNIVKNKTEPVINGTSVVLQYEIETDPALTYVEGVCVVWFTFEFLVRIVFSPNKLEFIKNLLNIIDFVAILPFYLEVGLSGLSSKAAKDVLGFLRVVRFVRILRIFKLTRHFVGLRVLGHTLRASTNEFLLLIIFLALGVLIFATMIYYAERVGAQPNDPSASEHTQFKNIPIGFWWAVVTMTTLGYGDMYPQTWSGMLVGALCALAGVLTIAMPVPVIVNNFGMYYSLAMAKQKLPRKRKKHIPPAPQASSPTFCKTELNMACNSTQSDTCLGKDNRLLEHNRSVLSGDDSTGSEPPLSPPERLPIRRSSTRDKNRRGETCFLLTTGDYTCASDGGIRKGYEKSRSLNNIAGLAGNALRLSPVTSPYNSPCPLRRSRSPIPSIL
Procedure: hKv3.1, hKv3.2, hKv3.3, and hKv3.4 were stably expressed in CHO-K1 (Chinese hamster ovary) cells and kept under constant antibiotic selection. For in vitro assays, cells were maintained in appropriate growth medium at 37° C. and 5% CO2 in a humidified incubator.
hKv3.X expressing cells were plated in T-25 flasks for 3-4 days at 37° C. (no selection antibiotic) prior to use and grown to 80% confluence. Cells were washed twice with PBS (calcium and magnesium free) and detached with a 5-minute treatment at 37° C. with 2-3 mls of Accutase®. Cells were collected, and flask was washed in CHO-SFM II media (Life Technologies Gibco), centrifuged for 2 minutes at ˜110×g and resuspended to obtain a single cell suspension of ˜2-3×10^6 cells/ml.
The intracellular solution contained the following (in mM): KCl 50, NaCl 10, KF 60, EGTA 20, HEPES 10, adjusted to pH 7.2 with KOH and an osmolarity of 285 mOsmol. Seal enhancer was purchased from Nanion (80 mM NaCl, 3 mM KCl, 10 mM MgCl2, 35 mM CaCl2), 10 mM HEPES, pH7.4, 298 mOsmol. The external solution contained (in mM): NaCl 140, KCl 4, CaCl2) 2, MgCl2 1, HEPES 10, Glucose 5, adjusted to pH7.4 and an osmolarity of 298 mOsmol.
All compounds were initially tested at 10 uM at a final DMSO concentration of 0.33%. Compounds were dissolved in dimethylsulfoxide (DMSO) at a stock concentration of 30 mM. The compound was further diluted 1:10 to give a stock concentration of 3 mM in DMSO. The final assay solution was diluted 1:300 in External solution to give a final concentration of 10 uM. For the DMSO Control Buffer 30 uL of DMSO was added to 10 mL buffer.
All electrophysiological recordings were performed at ambient temperature (21-23° C.) using automated patch clamp (Patchliner, Nanion Technologies GmbH) in the whole-cell configuration.
Cell membrane potentials were held at −80 mV, and currents were evoked by voltage steps (1000 ms duration) from −60 to +60 mV in 10 mV increments. This was performed first with vehicle (0.33% DMSO) and then with 10 uM compound, after a 3-minute incubation period. Data was taken from 4 cells per assay.
The recordings were analysed and selected using peak current amplitude (>100 pA at the −10 mV voltage step) in the absence of compound to eliminate unsuitable cells from analysis. Peak current amplitude was measured and recorded for each voltage step and data was normalised to the maximum current at +60 mV. The normalised Kv3.x currents following addition of the compound were then compared with the currents recorded prior to compound addition (vehicle control). Positive modulation was determined as % potentiation at the voltage step of −10 mV=[current (cmpd)/current (veh)]*100−100. % potentiation ≥50% was considered acceptable. In addition, voltage shift of the IV curve at V1/2 was measured. V1/2 of ≥−5 mV was also considered acceptable. IV curves were plotted in GraphPad Prism (software version 6.0) and fitted with a Boltzmann equation, where V1/2 is the voltage at half-maximal activation.

Row | Kv3.1 Activity at 10 μM Potentiation (%) (hKv3.1) | Kv3.1 Activity at 10 μM Voltage Shift (mV) (hKv3.1) | activation at 10 µM (hKv3.2) [%] | Kv3.2 Activity at 10 μM Voltage Shift (mV) (hKv3.2) | Structure (SMILES)
1 | 35 | −5.32 | 33 | −2.6 | CC[C@@]1(C)NC(=O)N(c2cccc(Oc3ccc(C)c(OC)c3)n2)C1=O [Example 58, (5R)-5-ethyl-3-[6-(3-methoxy-4-methyl-phenoxy)-2-pyridyl]-5-methyl-imidazolidine-2,4-dione]
2 | 45 | −3.03 | 28 | −2.81 | COc1cc(Oc2ccnc(N3C(=O)NC(C)(C)C3=O)c2)ccc1C [Example 44, 3-[4-(3-methoxy-4-methyl-phenoxy)-2-pyridyl]-5,5-dimethyl-imidazolidine-2,4-dione]
